Data taken from US20150160193A1, “TUMOR CELL ISOLATION/PURIFICATION PROCESS AND METHODS FOR USE THEREOF” (DIATECH ONCOLOGY, priority 2012, published 2015).
Where two headings read alike, the source gives them in different places.

Tests used:
[1] = test system: neoplastic cells collected from spleen and abdominal tumor biopsy specimens; assay: MiCK assay, patient specific cancer cell testing (Example 10); type: cell-based, human
Description: The experiments were conducted on neoplastic cells collected from spleen and abdominal tumor biopsy specimens from a person. The tumor specimens were of an unknown primary. The experiment consisted of using a MiCK assay, according to the present disclosure, to test the effectiveness of 37 potential anti-cancer drugs, combinations of these drugs, and various concentrations of these drugs.
Apoptotic readings greater than 5.0KU in the MiCK assay are considered to be highly sensitive and are associated with a good clinical response. […] It should be noted that the alkylating agents cyclophosphamide and ifosfamide require hepatic metabolic transformation to their active metabolite, 4HC and 4HI respectively, and therefore cannot be tested directly in vitro. For the MiCK assay their active metabolites, 4HC and 4HI respectively were used.

[2] = test system: Purified breast cancer cells from 67 patient (Pt) biopsies; assay: MiCK assay of drug-induced apoptosis, breast cancer specimens; type: cell-based, human; details: for KU Mean / KU Median: kinetic units of apoptosis; for KU Mean: mean over N patient samples (at least 9 per drug); for KU Median: median over N patient samples; for Mean Difference (95% CI) of KU vs Abraxane: drug minus Abraxane; for Mean Difference (95% CI) of KU vs Vincristine: drug minus Vincristine
Description: Apoptosis(KU)=(VmaxDrug Candidate Treated−VmaxControl)×60×X/(ODcontrol−ODblank)
Within 24 to 48 hours of collection, the specimen was minced, digested with 0.25% trypsin and 0.08% DNase for 1-2 hours at 37 C.°, and then filtered through a 100 micrometer cell strainer. When necessary, non-viable cells were removed by density gradient centrifugation. The cell suspension was then incubated for 30 min at 37° C. in a tissue culture flask to remove macrophages by adherence. For epithelial tumors lymphocytes were removed by 30 minute incubation with CD2 antibody conjugated magnetic beads for T lymphocytes and CD19 antibody conjugated magnetic beads for B lymphocytes. Remaining macrophages were removed, if necessary, using CD14 antibody conjugated magnetic beads. The final cell suspension was plated into a 96-well half-area plate, 120 microliter aliquot per well. The plate was incubated overnight at 37° C. with 5% carbon dioxide humidified atmosphere. 5×10^4 to 1.5×10^5 cells were seeded per well depending on the cell volume to give adequate well-bottom coverage.
Within 24 to 48 hours of collection, the specimen was treated as follows in order to purify and isolate cells from solid tumors: • Take the specimen out of the transport tube. • Put in a petri dish in 13 ml of PBS+high concentration of antibiotics (200 units/ml Penicillin+200 μg/ml streptomycin) and take measurements and picture of the specimen. […] In that case, one may make the determination to do a “pre-filtration” using sterile gauze over a 50 ml tube. Then proceed with the cell strainer filtration process referenced above. • Centrifuge the filtered cell suspension 1500 RPM 5 min • Discard the supernatant. To the pellet, add 5 ml of red blood cell lysis solution (standard NH4Cl containing lysis solution: Nh4Cl0.15M+KHCO3 10 mM+EDTA-4Na 0.1 mM, pH 7.2), incubate 2-3 min and add 5 ml of RPMI 10% FBS. • Centrifuge 5 min 1500 RPM. Resuspend the pellet in RPMI 10% FBS (1-10 ml depending on the pellet size). • Collect the second fraction in the enzyme and repeat the steps above. • Check the viability of all fractions and pool. Do a cytospin stain with Wright Giemsa to verify the cell content of the population. NOTE: this is done numerous times during the process of purification. • 3) When necessary, non-viable cells were removed by density gradient centrifugation. • Density gradient centrifugation (optiprep): first layer=2 ml cells+4.45 ml optiprep 40% in RPMI, second layer=optiprep 22.5% in RPMI, 3rd layer=0.5 ml of RPMI. Centrifuge at 2000 RPM for 20 min • Collect the viable cell layer, add 10 ml of RPMI 10% FBS, centrifuge at 1500 RPM for 5 min • Resuspend the pellet in RPMI 10% FBS (volume depends on the pellet size and on the next step required). • If mucin is present in the specimen: resuspend the pellet in 10 ml of PBS+20 mM DTT and incubate at 4° C. for 30 min to disintegrate the mucin. Wash with RPMI 1500 rpm for 5 min Resuspend the pellet in RPMI 10% FBS. • If the specimen is highly necrotic with presence of debris: Percoll 20% in HBSS, centrifuge at 800×g for 10 min • 4) The cell suspension was then incubated for 20 min at 37° C. in a tissue culture flask to remove macrophages by adherence. • The size and quantity of the flask and the volume used depends on the amount of cells.

[3] = KU compared per patient, % of 11 patients
[4] = person, tumor of unknown primary, maximum apoptotic response over the concentrations tested
[5] = KU compared per patient, % of 35 patients
[6] = KU compared per patient, % of 14 patients

| Compound | KU Mean [2] | KU Median [2] | Max Resp. (KU) [1, 4] | Mean Difference (95% CI) of KU vs Abraxane ([2]; patient pairwise comparison) | Mean Difference (95% CI) of KU vs Vincristine ([2]; patient pairwise comparison) | other results |
| --- | --- | --- | --- | --- | --- | --- |
| O=C1[O][Pt]2([NH][C@@H]3CCCC[C@H]3[NH]2)[O]C1=O [Oxali, oxaliplatin] | 1.9 KU | 1.8 KU |  |  |  | Max Resp. (KU) [1]: 6.7 KU; Carbo and Cisplatin and Oxali < 1 [2, 3]: (9%); Max (Carbo or Cisplatin) = Oxali +/− 0.57 and both > 1 [2, 3]: (36%); Max (Carbo or Cisplatin) > Oxali by more than 0.57 and Max (Carbo or Cisplatin) > 1 [2, 3]: (36%); Oxali > Max (Carbo or Cisplatin) + 0.57 [2, 3]: (9%); Mean Difference (95% CI) of KU vs Carbo ([2]; patient pairwise comparison, drug minus Carbo): 0.34 KU; % >1 ([2]; share of samples with KU >1): 82%; % >3 ([2]; share of samples with KU >3): 9% |
| CC(=O)O[C@H]1C(=O)[C@@]2(C)[C@H]([C@H](OC(=O)c3ccccc3)[C@]3(O)C[C@H](OC(=O)[C@H](O)[C@@H](NC(=O)c4ccccc4)c4ccccc4)C(C)=C1C3(C)C)[C@]1(OC(C)=O)CO[C@@H]1C[C@@H]2O [Taxol, paclitaxel] | 2.1 KU | 1.9 KU | 1.6 KU | 1.20 KU |  |  |
| CC(=O)O[C@@]12CO[C@@H]1C[C@H](O)[C@@]1(C)C(=O)[C@H](O)C3=C(C)[C@@H](OC(=O)[C@H](O)[C@@H](NC(=O)OC(C)(C)C)c4ccccc4)C[C@@](O)([C@@H](OC(=O)c4ccccc4)[C@H]21)C3(C)C [Taxotere, docetaxel] | 2.1 KU | 1.9 KU | 2.3 KU | 0.98 KU |  | Taxol and Taxotere < 1 [2, 5]: (14%); Taxotere = Taxol +/− 0.57 and both > 1 [2, 5]: (17%); Taxotere > Taxol by more than 0.57 and Taxotere > 1 [2, 5]: (37%); Taxotere > Taxol by more than 0.57 and Taxotere > 1 ([2]; KU compared per patient, % of 35 patients, listed as docetaxel): 37%; Mean Difference (95% CI) of KU vs Taxol ([2]; patient pairwise comparison, drug minus Taxol): 0.05 KU |
| CC[C@]1(O)C[C@H]2CN(CCc3c([nH]c4ccccc34)[C@@](C(=O)OC)(c3cc4c(cc3OC)N(C=O)[C@H]3[C@@](O)(C(=O)OC)[C@H](OC(C)=O)[C@]5(CC)C=CCN6CC[C@]43[C@@H]65)C2)C1 [Vincristine, vincristine] | 1.1 KU | 1.0 KU | 0.9 KU |  |  |  |
| CCC1=C[C@@H]2CN(C1)Cc1c([nH]c3ccccc13)[C@@](C(=O)OC)(c1cc3c(cc1OC)N(C)[C@H]1[C@@](O)(C(=O)OC)[C@H](OC(C)=O)[C@]4(CC)C=CCN5CC[C@]31[C@@H]54)C2 [Vinor, vinorelbine] | 1.8 KU | 1.5 KU | 3.1 KU |  | 0.63 KU | Max (Vcr or Vnbl) > Vinor + 0.57 [2, 6]: (0%); Vcr and Vnbl and Vinor < 1 [2, 6]: (14%); Vinor = Max (Vcr or Vnbl) +/− 0.57 and both > 1 [2, 6]: (36%); Vinor > Max (Vcr or Vnbl) by more than 0.57 and Vinroel > 1 [2, 6]: (29%); Mean Difference (95% CI) of KU vs Vincristine ([2]; patient pairwise comparison, listed as vinorelbine): APOP>vincristine; Mean Difference (95% CI) of KU vs Vnbl ([2]; patient pairwise comparison, drug minus Vnbl): 0.14 KU |
| CC[C@]1(O)C[C@@H]2CN(CCc3c([nH]c4ccccc34)[C@@](C(=O)OC)(c3cc4c(cc3OC)N(C)[C@H]3[C@@](O)(C(=O)OC)[C@H](OC(C)=O)[C@]5(CC)C=CCN6CC[C@]43[C@@H]65)C2)C1 [Vnbl, Vinblastine] | 1.8 KU | 1.5 KU | 1.2 KU |  | 0.14 KU |  |
